The values below come from patent US8785457B2 (Cellzome Limited, priority 2009, dated 2014).

Assay [1] has as its target T1, DNA-dependent protein kinase (DNA-PK) (Homo sapiens, UniProt P78527).
T1 construct: endogenous in cells; host or cells: Jurkat, clone E6-1 (ATCC TIB-152) cell lysate
In words: kinobeads assay, DNA-PK. It is filed as binding. To be noted: kinobeads assay. The essentials:
(§1)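 Competitive binding in Jurkat cell lysate (5 mg/ml total protein): test compounds at various concentrations competed with beads bearing immobilized phenylmorpholin-chromen ligand. Bead-bound kinases were eluted and quantified by antibody dot blot with infrared detection; IC50 values came from dose-response curves.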

For the next assay, the target named is T2, PI3K delta (PI3 Kd) (Homo sapiens, UniProt O00329).
T2 construct: endogenous in cells; host or cells: Jurkat, clone E6-1 (ATCC TIB-152) cell lysate
Description: kinobeads assay, PI3K delta. It is filed as binding. To be noted: kinobeads assay, read-out: Inhibition values (IC50) PI3Kd. The gist of the method: as §1

In the next assay the target is T3, mTOR (Homo sapiens, UniProt P42345).
T3 construct: endogenous in cells; host or cells: Jurkat, clone E6-1 (ATCC TIB-152) cell lysate
In words: mTOR kinobeads assay (competitive binding in Jurkat cell lysate, immunodetection). To be noted: kinobeads assay. The gist of the method:
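IC50 derived from dose-response curves of mTOR captured on immobilized phenylmorpholin-chromen beads, detected by antibody dot blot with infrared fluorescence.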

The mark [2] stands for this setting: Table 4, read-out: Inhibition values (IC50) DNA-PK.
The mark [3] stands for this setting: Table 6, read-out: Inhibition values (IC50) DNAPK.
[4] abbreviates: Table 4, read-out: Inhibition values (IC50) mTor.
[5] abbreviates: Table 6, read-out: Inhibition values (IC50) mTOR.

Where two headings read alike, the source gives them in different places.

T1 sequence (P78527 whole entry): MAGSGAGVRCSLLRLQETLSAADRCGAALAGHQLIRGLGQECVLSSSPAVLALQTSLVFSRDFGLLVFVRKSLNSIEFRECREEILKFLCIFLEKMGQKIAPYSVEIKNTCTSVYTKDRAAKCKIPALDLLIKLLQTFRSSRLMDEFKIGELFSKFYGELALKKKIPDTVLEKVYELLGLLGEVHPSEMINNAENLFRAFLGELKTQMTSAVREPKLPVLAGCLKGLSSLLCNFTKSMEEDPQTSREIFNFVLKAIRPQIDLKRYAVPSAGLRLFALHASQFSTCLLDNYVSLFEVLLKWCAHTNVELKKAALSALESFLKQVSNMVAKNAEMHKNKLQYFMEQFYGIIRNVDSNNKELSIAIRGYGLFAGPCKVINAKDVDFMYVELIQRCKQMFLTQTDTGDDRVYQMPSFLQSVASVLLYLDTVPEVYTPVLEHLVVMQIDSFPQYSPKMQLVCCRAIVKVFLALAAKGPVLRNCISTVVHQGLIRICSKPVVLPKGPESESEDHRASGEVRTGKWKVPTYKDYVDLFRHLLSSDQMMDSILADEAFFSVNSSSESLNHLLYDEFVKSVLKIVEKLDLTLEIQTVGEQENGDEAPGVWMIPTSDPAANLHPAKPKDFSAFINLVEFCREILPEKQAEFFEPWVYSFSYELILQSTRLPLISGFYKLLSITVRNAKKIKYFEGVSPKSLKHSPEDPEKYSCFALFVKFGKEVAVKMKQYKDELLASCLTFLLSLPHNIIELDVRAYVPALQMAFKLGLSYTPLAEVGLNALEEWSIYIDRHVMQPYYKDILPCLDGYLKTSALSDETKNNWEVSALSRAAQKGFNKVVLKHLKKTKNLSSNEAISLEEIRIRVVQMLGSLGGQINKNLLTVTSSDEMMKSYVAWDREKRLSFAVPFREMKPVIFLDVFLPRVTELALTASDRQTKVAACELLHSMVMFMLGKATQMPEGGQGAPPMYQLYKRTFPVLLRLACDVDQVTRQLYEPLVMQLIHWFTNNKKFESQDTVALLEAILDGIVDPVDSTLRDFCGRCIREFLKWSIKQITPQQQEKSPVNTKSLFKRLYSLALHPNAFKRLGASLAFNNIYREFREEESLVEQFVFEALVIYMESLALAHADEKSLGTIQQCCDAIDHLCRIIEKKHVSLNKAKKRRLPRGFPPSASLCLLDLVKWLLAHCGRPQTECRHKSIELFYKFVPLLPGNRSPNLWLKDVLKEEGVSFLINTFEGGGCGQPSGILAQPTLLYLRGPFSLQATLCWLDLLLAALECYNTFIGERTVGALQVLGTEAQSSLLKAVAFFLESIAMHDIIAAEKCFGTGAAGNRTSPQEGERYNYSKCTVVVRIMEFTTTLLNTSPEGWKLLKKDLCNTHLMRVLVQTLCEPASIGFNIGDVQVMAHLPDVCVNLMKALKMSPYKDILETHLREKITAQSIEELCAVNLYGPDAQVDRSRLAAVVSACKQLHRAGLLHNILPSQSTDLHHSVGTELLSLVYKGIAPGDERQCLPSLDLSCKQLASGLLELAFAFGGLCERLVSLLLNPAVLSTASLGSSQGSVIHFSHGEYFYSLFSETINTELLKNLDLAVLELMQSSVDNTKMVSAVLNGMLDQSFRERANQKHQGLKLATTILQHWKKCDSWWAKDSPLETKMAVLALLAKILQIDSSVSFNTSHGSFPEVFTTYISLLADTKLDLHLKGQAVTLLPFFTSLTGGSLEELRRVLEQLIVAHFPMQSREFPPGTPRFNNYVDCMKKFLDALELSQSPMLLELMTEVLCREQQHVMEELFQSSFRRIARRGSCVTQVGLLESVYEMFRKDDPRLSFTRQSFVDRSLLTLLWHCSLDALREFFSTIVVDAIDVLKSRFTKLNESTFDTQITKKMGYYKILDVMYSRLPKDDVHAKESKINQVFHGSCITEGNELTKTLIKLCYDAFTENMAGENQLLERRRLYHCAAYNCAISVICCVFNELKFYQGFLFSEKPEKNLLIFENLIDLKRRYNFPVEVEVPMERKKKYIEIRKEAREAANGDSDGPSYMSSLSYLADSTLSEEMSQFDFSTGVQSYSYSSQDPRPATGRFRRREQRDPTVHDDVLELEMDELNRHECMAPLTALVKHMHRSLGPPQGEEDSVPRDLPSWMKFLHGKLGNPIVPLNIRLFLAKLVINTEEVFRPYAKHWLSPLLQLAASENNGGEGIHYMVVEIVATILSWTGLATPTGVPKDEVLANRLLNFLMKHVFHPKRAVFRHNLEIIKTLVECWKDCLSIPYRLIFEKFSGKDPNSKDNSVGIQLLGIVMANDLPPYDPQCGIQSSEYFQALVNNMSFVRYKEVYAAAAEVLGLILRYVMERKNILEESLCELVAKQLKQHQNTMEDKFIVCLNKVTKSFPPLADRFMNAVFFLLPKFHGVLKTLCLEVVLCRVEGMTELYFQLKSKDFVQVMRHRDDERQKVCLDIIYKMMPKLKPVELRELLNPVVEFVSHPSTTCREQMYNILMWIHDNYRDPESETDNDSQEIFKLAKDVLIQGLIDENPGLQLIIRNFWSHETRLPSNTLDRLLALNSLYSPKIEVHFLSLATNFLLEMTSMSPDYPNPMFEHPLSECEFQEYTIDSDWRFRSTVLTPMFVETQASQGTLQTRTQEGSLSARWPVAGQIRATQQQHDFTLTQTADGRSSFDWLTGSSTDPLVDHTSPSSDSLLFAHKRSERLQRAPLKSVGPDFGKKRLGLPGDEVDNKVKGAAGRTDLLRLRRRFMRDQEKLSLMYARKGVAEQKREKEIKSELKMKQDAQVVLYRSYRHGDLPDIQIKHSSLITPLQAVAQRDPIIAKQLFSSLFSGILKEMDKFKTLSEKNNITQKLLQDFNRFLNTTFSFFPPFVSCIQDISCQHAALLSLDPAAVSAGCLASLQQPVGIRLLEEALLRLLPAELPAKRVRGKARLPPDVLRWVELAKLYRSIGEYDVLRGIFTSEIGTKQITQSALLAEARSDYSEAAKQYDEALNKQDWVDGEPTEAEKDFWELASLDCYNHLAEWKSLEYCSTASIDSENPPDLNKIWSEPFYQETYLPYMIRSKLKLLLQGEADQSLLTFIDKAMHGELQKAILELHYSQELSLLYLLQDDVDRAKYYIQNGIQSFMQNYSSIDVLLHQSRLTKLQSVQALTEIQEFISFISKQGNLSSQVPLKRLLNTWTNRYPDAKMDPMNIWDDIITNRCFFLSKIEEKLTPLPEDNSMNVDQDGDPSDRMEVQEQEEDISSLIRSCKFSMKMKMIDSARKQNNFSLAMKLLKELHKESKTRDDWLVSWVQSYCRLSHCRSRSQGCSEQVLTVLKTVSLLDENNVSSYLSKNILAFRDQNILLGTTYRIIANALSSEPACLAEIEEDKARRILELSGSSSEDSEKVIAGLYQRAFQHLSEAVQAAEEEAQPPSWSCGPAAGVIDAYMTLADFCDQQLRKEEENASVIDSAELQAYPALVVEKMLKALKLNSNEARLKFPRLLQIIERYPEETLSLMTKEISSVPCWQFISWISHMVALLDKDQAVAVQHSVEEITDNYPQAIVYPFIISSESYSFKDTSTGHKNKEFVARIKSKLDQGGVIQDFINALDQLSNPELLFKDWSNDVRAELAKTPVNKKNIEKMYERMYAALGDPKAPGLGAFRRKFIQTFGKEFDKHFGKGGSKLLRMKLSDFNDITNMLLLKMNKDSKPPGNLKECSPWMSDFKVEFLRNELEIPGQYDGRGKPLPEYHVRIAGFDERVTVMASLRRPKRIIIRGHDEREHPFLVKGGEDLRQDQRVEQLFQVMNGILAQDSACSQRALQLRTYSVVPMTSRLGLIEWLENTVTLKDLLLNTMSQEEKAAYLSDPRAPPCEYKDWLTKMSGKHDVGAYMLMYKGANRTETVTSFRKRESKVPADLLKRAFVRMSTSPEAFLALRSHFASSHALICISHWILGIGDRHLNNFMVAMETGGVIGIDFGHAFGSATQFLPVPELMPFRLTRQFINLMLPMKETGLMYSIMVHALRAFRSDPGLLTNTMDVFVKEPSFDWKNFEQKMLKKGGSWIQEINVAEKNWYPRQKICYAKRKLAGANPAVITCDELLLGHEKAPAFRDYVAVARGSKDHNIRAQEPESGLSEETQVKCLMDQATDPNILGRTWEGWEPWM

The term IC50 denotes the concentration that inhibits the measured activity by half. Consider `CCNC(=O)Nc1ccc(-c2nc3c(c(N4CCOC[C@@H]4C)n2)CN(C(=O)OC(C)(C)C)C3)cc1` [Example 1, (S)-tert-butyl 2-(4-(3-ethylureido)phenyl)-4-(3-methylmorpholino)-5H-pyrrolo[3,4-d]pyrimidine-6(7H)-carboxylate], for which the half-maximal inhibitory concentration (IC50) is over 10 µM in assay [1] (setting [2]); over 10 µM in assay [1] (setting [3]); over 10 µM at PI3K delta (PI3 Kd) (Table 4); over 10 µM on PI3K delta (PI3 Kd) (Table 6); 0.1 to 1 µM on mTOR (setting [4]); 0.1 to 1 µM on mTOR (setting [5]).
Regarding `CCNC(=O)Nc1ccc(-c2nc3c(c(N4CCOC[C@@H]4C)n2)CCN(C(=O)C(C)(C)C)C3)cc1` [Example 58, (S)-1-ethyl-3-(4-(4-(3-methylmorpholino)-7-pivaloyl-5,6,7,8-tetrahydropyrido[3,4-d]pyrimidin-2-yl)phenyl)urea], the IC50 in assay [1] (setting [2]) is over 10 µM; in assay [1] (setting [3]), over 10 µM; on PI3K delta (PI3 Kd) (Table 4), over 10 µM; on PI3K delta (PI3 Kd) (Table 6), over 10 µM; at mTOR (setting [4]) it was under 0.1 µM; at mTOR (setting [5]), under 0.1 µM.
For `CCNC(=O)Nc1ccc(-c2nc3c(c(N4CCOC[C@@H]4C)n2)CCN(C(C)=O)C3)cc1` [Example 59, (S)-1-(4-(7-acetyl-4-(3-methylmorpholino)-5,6,7,8-tetrahydropyrido[3,4-d]pyrimidin-2-yl)phenyl)-3-ethylurea], the IC50 in assay [1] (setting [2]) is over 10 µM; in assay [1] (setting [3]), over 10 µM; at PI3K delta (PI3 Kd) (Table 4) it was over 10 µM; on PI3K delta (PI3 Kd) (Table 6) it was over 10 µM; at mTOR (setting [4]) it was under 0.1 µM; on mTOR (setting [5]), under 0.1 µM.
Turning to `C[C@H]1COCCN1c1nc(-c2ccc(NC(=O)NC3CC3)cc2)nc2c1CCN(C(=O)C1CC1)C2` [Example 60, (S)-1-(4-(7-(cyclopropanecarbonyl)-4-(3-methylmorpholino)-5,6,7,8-tetrahydropyrido[3,4-d]pyrimidin-2-yl)phenyl)-3-cyclopropylurea], the IC50 in assay [1] (setting [2]) was over 10 µM; in assay [1] (setting [3]) it was over 10 µM; on PI3K delta (PI3 Kd) (Table 4), over 10 µM; on PI3K delta (PI3 Kd) (Table 6), over 10 µM; on mTOR (setting [4]), under 0.1 µM; at mTOR (setting [5]), under 0.1 µM.
`CC(C)C(=O)N1CCc2c(nc(-c3ccc(NC(=O)NC4CC4)cc3)nc2N2CCOC[C@@H]2C)C1` [Example 61, (S)-1-cyclopropyl-3-(4-(7-isobutyryl-4-(3-methylmorpholino)-5,6,7,8-tetrahydropyrido[3,4-d]pyrimidin-2-yl)phenyl)urea]: the IC50 in assay [1] (setting [2]) was over 10 µM; in assay [1] (setting [3]) it was over 10 µM; at PI3K delta (PI3 Kd) (Table 4), over 10 µM; at PI3K delta (PI3 Kd) (Table 6), over 10 µM; on mTOR (setting [4]), under 0.1 µM; on mTOR (setting [5]) it was under 0.1 µM.
As for `CC(=O)N1CCc2c(nc(-c3ccc(NC(=O)NC4CC4)cc3)nc2N2CCOC[C@@H]2C)C1` [Example 62, (S)-1-(4-(7-acetyl-4-(3-methylmorpholino)-5,6,7,8-tetrahydropyrido[3,4-d]pyrimidin-2-yl)phenyl)-3-cyclopropylurea], the IC50 was over 10 µM in assay [1] (setting [2]); over 10 µM in assay [1] (setting [3]); over 10 µM on PI3K delta (PI3 Kd) (Table 4); over 10 µM at PI3K delta (PI3 Kd) (Table 6); under 0.1 µM at mTOR (setting [4]); under 0.1 µM on mTOR (setting [5]).
As for `C[C@H]1COCCN1c1nc(-c2ccc(NC(=O)NC3CC3)cc2)nc2c1CCN(C(=O)C(C)(C)C)C2` [Example 64, (S)-1-cyclopropyl-3-(4-(4-(3-methylmorpholino)-7-pivaloyl-5,6,7,8-tetrahydropyrido[3,4-d]pyrimidin-2-yl)phenyl)urea], the IC50 in assay [1] (setting [3]) is over 10 µM; on PI3K delta (PI3 Kd) (Table 6) it was over 10 µM; on mTOR (setting [5]) it was under 0.1 µM.
On to `CC(C)CN1Cc2nc(-c3ccc(NC(=O)NC4CC4)cc3)nc(N3CCOC[C@@H]3C)c2C1` [Example 65, (S)-1-cyclopropyl-3-(4-(6-isobutyl-4-(3-methylmorpholino)-6,7-dihydro-5H-pyrrolo[3,4-d]pyrimidin-2-yl)phenyl)urea], for which the 50% inhibitory concentration (IC50) was over 10 µM in assay [1] (setting [3]), over 10 µM at PI3K delta (PI3 Kd) (Table 6) and under 0.1 µM on mTOR (setting [5]).
Regarding `CCNC(=O)Nc1ccc(-c2nc3c(c(N4CCOC[C@@H]4C)n2)CN(CC(C)C)C3)cc1` [Example 66, (S)-1-ethyl-3-(4-(6-isobutyl-4-(3-methylmorpholino)-6,7-dihydro-5H-pyrrolo[3,4-d]pyrimidin-2-yl)phenyl)urea], the concentration for half-maximal inhibition (IC50) in assay [1] (setting [3]) was over 10 µM; at PI3K delta (PI3 Kd) (Table 6), over 10 µM; at mTOR (setting [5]), under 0.1 µM.
As for `CCNC(=O)Nc1ccc(-c2nc3c(c(N4CCOC[C@@H]4C)n2)CN(CC(C)(C)C)C3)cc1` [Example 67, (S)-1-ethyl-3-(4-(4-(3-methylmorpholino)-6-neopentyl-6,7-dihydro-5H-pyrrolo[3,4-d]pyrimidin-2-yl)phenyl)urea], the IC50 in assay [1] (setting [3]) is over 10 µM; on PI3K delta (PI3 Kd) (Table 6) it was over 10 µM; on mTOR (setting [5]), 0.1 to 1 µM.
For `CCNC(=O)Nc1ccc(-c2nc3c(c(N4CCOC[C@@H]4C)n2)CN(CC(F)(F)F)C3)cc1` [Example 68, (S)-1-ethyl-3-(4-(4-(3-methylmorpholino)-6-(2,2,2-trifluoroethyl)-6,7-dihydro-5H-pyrrolo[3,4-d]pyrimidin-2-yl)phenyl)urea], the IC50 in assay [1] (setting [3]) is over 10 µM; at PI3K delta (PI3 Kd) (Table 6), over 10 µM; on mTOR (setting [5]), 0.1 to 1 µM.
As to `CCNC(=O)Nc1ccc(-c2nc3c(c(N4CCOCC4)n2)CN(C)C3)cc1` [Example 69, 1-Ethyl-3-(4-(6-methyl-4-morpholino-6,7-dihydro-5H-pyrrolo[3,4-d]pyrimidin-2-yl)phenyl)urea], the IC50 in assay [1] (setting [3]) is over 10 µM; at PI3K delta (PI3 Kd) (Table 6), over 10 µM; on mTOR (setting [5]), under 0.1 µM.
Consider `CCNC(=O)Nc1ccc(-c2nc3c(c(N4CCOCC4)n2)CN(C(=O)OCC)C3)cc1` [Example 70, Ethyl 2-(4-(3-ethylureido)phenyl)-4-morpholino-5H-pyrrolo[3,4-d]pyrimidine-6(7H)-carboxylate], for which the values for the IC50 (in assay [1] (setting [3]); on PI3K delta (PI3 Kd) (Table 6); on mTOR (setting [5])) were 1 to 10 µM, 1 to 10 µM and under 0.1 µM, respectively.
With `C[C@H]1COCCN1c1nc(-c2ccc(NC(N)=O)cc2)nc2c1CN(C)C2` [Example 71, (S)-1-(4-(6-methyl-4-(3-methylmorpholino)-6,7-dihydro-5H-pyrrolo[3,4-d]pyrimidin-2-yl)phenyl)urea], the half-maximal inhibitory concentration (IC50) in assay [1] (setting [3]) is over 10 µM; on PI3K delta (PI3 Kd) (Table 6), 1 to 10 µM; on mTOR (setting [5]), under 0.1 µM.
For `Cc1cc(NC(=O)Nc2ccc(-c3nc4c(c(N5CCOC[C@@H]5C)n3)CN(C)C4)cc2)no1` [Example 72, (S)-1-(4-(6-methyl-4-(3-methylmorpholino)-6,7-dihydro-5H-pyrrolo[3,4-d]pyrimidin-2-yl)phenyl)-3-(5-methylisoxazol-3-yl)urea] the same measures were over 10 µM, over 10 µM and 0.1 to 1 µM.
Consider `C[C@H]1COCCN1c1nc(-c2ccc(NC(=O)NCCO)cc2)nc2c1CN(C)C2` [Example 73, (S)-1-(2-hydroxyethyl)-3-(4-(6-methyl-4-(3-methylmorpholino)-6,7-dihydro-5H-pyrrolo[3,4-d]pyrimidin-2-yl)phenyl)urea], for which the IC50 was over 10 µM in assay [1] (setting [3]), 1 to 10 µM at PI3K delta (PI3 Kd) (Table 6) and under 0.1 µM on mTOR (setting [5]).
Regarding `C[C@H]1COCCN1c1nc(-c2ccc(NC(=O)NC3CC3)cc2)nc2c1CN(C(=O)C1CCOCC1)C2` [Example 129, (S)-1-cyclopropyl-3-(4-(4-(3-methylmorpholino)-6-(tetrahydro-2H-pyran-4-carbonyl)-6,7-dihydro-5H-pyrrolo[3,4-d]pyrimidin-2-yl)phenyl)urea], the values for the IC50 on PI3K delta (PI3 Kd) (Table 6) and at mTOR (setting [5]) were over 10 µM and under 0.1 µM, respectively.
